Results on eight compounds are retold here after publication PMC5025259 (ACS infectious diseases, 2016).

Some results are limits rather than exact numbers.

The target in one assay is T1, rTbGSK3β (Trypanosoma brucei brucei, UniProt Q388M1).
T1 sequence (Q388M1 1-352): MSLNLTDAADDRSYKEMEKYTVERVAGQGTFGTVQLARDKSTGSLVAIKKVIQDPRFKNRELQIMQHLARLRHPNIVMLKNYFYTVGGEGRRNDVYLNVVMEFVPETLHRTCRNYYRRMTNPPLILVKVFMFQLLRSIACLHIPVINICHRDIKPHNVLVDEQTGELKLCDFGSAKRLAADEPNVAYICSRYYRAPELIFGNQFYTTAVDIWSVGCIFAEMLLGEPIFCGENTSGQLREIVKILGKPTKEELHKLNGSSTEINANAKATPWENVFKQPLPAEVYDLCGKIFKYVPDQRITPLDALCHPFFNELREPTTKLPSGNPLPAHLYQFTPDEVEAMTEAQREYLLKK
As to the kind of experiment: biochemical.

Assay [1] relates to bloodstream form (BSF) CA427 trypanosomes. As to the kind of experiment: Proliferation inhibition assay. Format: cell-based, Trypanosoma brucei. The conditions noted are these: axenic cultures of bloodstream trypanosomes, 48 h.
Assay [2] relates to transferrin (Tf) endocytosis in bloodstream T. brucei. The conditions noted are these: cited from earlier work.
Assay [3] relates to BSA endocytosis in bloodstream T. brucei. The assay is described as follows: Endocytosis assay: BSA-A647 uptake by bloodstream trypanosomes. Format: cell-based, Trypanosoma brucei. As to conditions: bulk-phase uptake.
In assay [4] the test system is Hp-Hb endocytosis in bloodstream T. brucei. The assay is described as follows: Endocytosis assay: Hp-Hb-A488 uptake by bloodstream trypanosomes. Format: cell-based, Trypanosoma brucei. The conditions noted are these: Hp-Hb 38 nM.
Assay [5] has as its system Tf endocytosis in HeLa cells. The assay is described as follows: HeLa cell endocytosis of transferrin. Format: cell-based, human. As to conditions: each compound 10 μM, Tf-Alexa488 5 μg/mL, 15 min at 37 °C.
The test system of assay [6] is Tf endocytosis in TbGSK3β overexpression trypanosomes. As to the kind of experiment: Tf endocytosis in trypanosomes overexpressing TbGSK3β. Format: cell-based, Trypanosoma brucei. The conditions noted are these: clone 1, TWS119 10 μM, 3 h induction.
For assay [7], the system named is transferrin (Tf) endocytosis in bloodstream T. brucei. Format: cell-based, Trypanosoma brucei. The conditions noted are these: Figure S1.
The test system of assay [8] is bloodstream form (BSF) CA427 trypanosomes. The conditions noted are these: read-out: GI50 (concentration of drug that inhibits growth by 50%); trypanosome proliferation; cited from earlier work.

As a reminder, the IC50 is the concentration that gives 50% inhibition. Read a low IC50 as greater potency. On rTbGSK3β, `Cc1cc(Nc2cc(CN3CCOCC3)c3nc(C)c(Cc4ccc(Cl)cc4F)n3n2)n[nH]1` [LY2784544] displayed an IC50 of 0.6 ± 0.2 µM. Also, the “T. brucei GL50” value in assay [1] was determined as 1.0 µM.

As for `N#C/C(=C\c1ccc(O)c(O)c1)C(N)=S` [tyrphostin-A47], the “Effect on Tf endocytosis in the parasite” value in assay [2] was “blocks”.

With `Nc1cccc(-c2cc3c(Oc4cccc(O)c4)ncnc3[nH]2)c1` [TWS119], in assay [3], the “Effect on BSA endocytosis” value is reported as “did not decrease”. In assay [4], the “Effect on Hp-Hb endocytosis” value is “did not decrease”. In assay [1], the “T. brucei GL50” value was determined as 1.1 µM. Moreover, the “Effect on Tf endocytosis in HeLa cells” value in [5] was “Neither TbGSK3β inhibitor affected”. The “Reduction of Tf endocytosis driven by TbGSK3β overexpression” value in [6] came out at 300%.

Regarding `CNC(=O)c1cc(Oc2ccc(NC(=O)Nc3ccc(Cl)c(C(F)(F)F)c3)cc2)ccn1` [Sorafenib], the “T. brucei GL50” value in [1] was determined as 3.1 µM.

For the compound `CS(=O)(=O)CCNCc1ccc(-c2ccc3ncnc(Nc4ccc(OCc5cccc(F)c5)c(Cl)c4)c3c2)o1` [Lapatinib], the “Effect on Tf endocytosis in T. brucei” value in assay [2] (ref Guyett, P.J., et al., manuscript submitted) was “blocks”.

Regarding `O=S(=O)(NCCNC/C=C/c1ccc(Br)cc1)c1cccc2cnccc12` [H-89], the “Effect on Tf endocytosis in HeLa cells” value in assay [5] is reported as “decreased”.

In turn, `C[C@@H](Nc1ncnc2[nH]c(-c3ccc(O)cc3)cc12)c1ccccc1` [PKI-166] registered an IC50 at rTbGSK3β greater than 20 µM. The “Effect on Tf endocytosis” value in [7] is listed as “did not inhibit”. Moreover, the “Effect on BSA endocytosis” value in assay [3] is given as “did not inhibit”. In [8], the GI50 was 5 µM.

For the compound `O=C1Nc2ccc3ncsc3c2/C1=C/Nc1ccc(S(=O)(=O)Nc2ccccn2)cc1` [GW8510], the “Effect on BSA endocytosis” value in assay [3] was “decreased”. For the same compound, the “T. brucei GL50” value in assay [1] was determined as 0.12 µM. Besides, the “Effect on Tf endocytosis in HeLa cells” value in [5] is recorded as “Neither TbGSK3β inhibitor affected”.
